These antisense oligonucleotides have a phosphorothioate backbone; sugars and methylation of C are not fully specified.
The sequences below were run against AKT2. Details: ASO.
Also: test concentration or dose not given here.

Point of comparison: GTGAGCGACTTCATCCTT, remaining target (mRNA or protein) (fraction of control) 0.25. Against it:
- TGTGATTGTGATGGACTG — higher, 0.3
- ATGACCTCCTTGGCATCG — lower, 0.18
- GAGCCACACTTGTAGTCC — lower, 0.11
- ACCAGGATGACTTTGCCA — the same, 0.25
- CCCGCTCCTCTGTGAAGA — lower, 0.08
- CTCCTTGGCATCGCTGGG — higher, 0.29
- CCAGCCTTCTTTGATGAC — the same, 0.25
- CAAGGAGTTTGAGATAGT — higher, 0.36
- CCGCTGCTTGAGGCTGTT — higher, 0.29
- TGGCATTCTGCTACGGAG — lower, 0.18
- GTGATGGCAGCGAGCGTG — higher, 0.38
- AGTTGATGCTGAGGAAGA — higher, 0.51
- CTTGAGGCTGTTGGCGAC — lower, 0.18
- CTACGGAGAAGTTGTTTA — higher, 0.42
- TCGGTGACTGTGTGAGCG — higher, 0.34
- TTCCATCTCCTCAGTCGT — lower, 0.19
- CCAATGAAGGAGCCGTCG — higher, ≥ 1
- GATGGACTGGGCGGTAAA — lower, 0.22
- CAGTCGTGGAGGAGTCAC — higher, 0.42
- TGGACAGGGCACAGTCTC — higher, 0.3
- ATGACAAAGGTGTTGGGT — higher, 0.29
- GTCTTGATGTATTCACCA — higher, 0.52
- ACTGTGTGAGCGACTTCA — higher, 0.38
- ACTCCATCACAAAGCACA — lower, 0.2
- GAGGCACCGTGGACAGGG — higher, 0.33
- TGTGGAGCCAGCCTTCTT — higher, 0.28
- ATGATGACTTCCTTTCGC — higher, 0.43
- TGGTCACTTTAGCCCGTG — higher, ≥ 1
- GCCTTGCTGACCGCCACT — lower, 0.18
- GGGTGCCTGGTGTTCTGG — higher, 0.3
- CTTTGATGACAGACACCT — lower, 0.23
- TGACAGACACCTCATTCA — lower, 0.15
- CGTGCGTCCTCTGCGTGG — lower, 0.14
- CCGCATCCACTCCTCCCT — lower, 0.12

Each sequence was assayed against IL1R1. Details: ASO.

Point of comparison: AGTGCTACGGTGCGGGCGCG, remaining target (mRNA or protein) (fraction of control) 0.75. Against it:
- GCCACCACAGCCTCTCCCTC — lower, 0.42
- CGCGCTCGGCTCCTCCCGGC — the same, 0.75
- TGGTGACCTCAGGGATAAAG — the same, 0.75
- AGGGCTGCGGCGGCTCCACT — the same, 0.75
- CCTCCAGGGCTGCGGCGGCT — the same, 0.75
- CTTGGAGAAGGCCTTGTCTT — the same, 0.75
- CACTTAGCCGTGCGTTGGTG — lower, 0.5
- TCTGAGTAACACTTTCAT — the same, 0.75
- CGTGCCAGTGTGGAGTGAGG — lower, 0.23
- GCGGGATGACAGAAGAGCGG — the same, 0.75
- AACTTCTCCATGCTACCCGA — the same, 0.75
- AGTCCTCCGTCTCCTGCAAC — the same, 0.75
- AGATGCCTTGCGTTGGCTGC — lower, 0.5
- AGTCAAAGGAAGTTCACGGG — lower, 0.5
- GCAACGCCATAAGACAGGAG — the same, 0.75
- CATAACCTGGCCTGCAACGC — the same, 0.75
- GGAACTGCCTTTCGCGGTCT — the same, 0.75
- CACCGAGGAGCAGGCGCGGC — the same, 0.75
- AGTAACACTTTCATATTCTT — the same, 0.75
- TCGGCTCCTCCCGGCCGCGC — the same, 0.75
- CTTTCATATTCTTCTTGGAG — the same, 0.75
- CCCTTCCATAAATGAACAGC — the same, 0.75
- CTCTCCACCGAGGAGCAGGC — the same, 0.75
- GAAACAAATAAGTCTGAGTA — the same, 0.75
- GCAAAGCGGGCCCAGGAGAA — lower, 0.3
- CACTGCAACCTCCGTCTCCC — the same, 0.75
- TCTTCAGAGGGTGCGTCTAC — the same, 0.75
- CATTCCTGCCGCTCCCTGGG — the same, 0.75
- CCCTTGGGCTGTGGATGACT — the same, 0.75
- TGATCCGTGATGCATGCTGT — lower, 0.5
- TCTGGCATTTTCTCATAGTC — the same, 0.75
- TGTGTCCTGCAATCGGTGGC — lower, 0.1
- TGCCTTTCGCGGTCTCGCTC — the same, 0.75
- CATTCCATGAACTCTGCAAG — the same, 0.75
- CCTCCACCCACGCTTATCCA — lower, 0.29
- TACCCGAGAGGCACGTGAGC — the same, 0.75

Each sequence was assayed against NSMAF. Details: ASO.

Point of comparison: CTTCAGGCTATTGACTAG, remaining target (mRNA or protein) (fraction of control) 0.46. Against it:
- TACACTGACATCATGTTC — lower, 0.43
- TTTAGGTAGATGTCGGAA — higher, 0.52
- ACTCGTGAAGGTGTTCAG — lower, 0.34
- CATTTTATCTGCCCTAAG — higher, 0.56
- AATCTCTCCTTGGAGTAG — higher, 0.61
- TTTCCTTTCATGGTGACT — lower, 0.43
- CACAGCATATACTCTGGT — lower, 0.35
- CGAGACTGCAAAATAGCT — lower, 0.32
- ATCTGCCATAGAAGCATT — higher, 0.56
- CCTCCTTCATAGGTCAGG — higher, 0.74
- GGCTGGGATATTGAATCT — higher, 0.72
- ATCTGTCCTCCTTGTCTC — higher, 0.47
- GTCTCCACAACATCTTCC — higher, 0.86
- CCTTTCTATTTTATATGG — higher, 0.74
- TTAAAATCCGTTGCACCA — higher, 0.55
- CTCTTCTGGAGAAAGTCC — higher, 0.67
- GCATGGCTACCTTCTCAT — lower, 0.15
- TTCCATGTGCAGCTTTTC — lower, 0.34
- TTTGTGAAGTGTCTATTG — higher, 0.51
- TGTGTCCGTGATGCACAC — lower, 0.24
- TGTCAGTAGTCTCTCCAG — lower, 0.25
- GCCGTGCCTCCTTTTGTA — higher, 0.47
- TCAAGGCAGGATGCTCTG — lower, 0.23
- GGCTCTATGCTGTTCAAA — lower, 0.39
- TATGACAGTGGCATCTCC — higher, 0.65
- TGGAAACACAGGGTACTG — lower, 0.37
- GAGTGTTATCTGGACCAC — lower, 0.28
- GACTCCCATACATGAACT — higher, 0.51
- TGTGTGGCCCTGTATTCT — lower, 0.38
- AGATCCCGGAAGGTTCCT — lower, 0.22
- CTGCAGCATGTAGCTCTC — higher, 0.83
- GTGATTCCAGTAACTGCT — lower, 0.36
- TGTTGAACATTCTATCTG — higher, 0.79
- ATACAGTCTCTCAAAGGA — higher, 0.73

What follows are sequences tested against RAF1. Details: ASO.

Point of comparison: GGTGCAAAGTCAACTAGAAG, remaining target (mRNA or protein) (fraction of control) 0.88. Against it:
- GGTGAGGGAGCGGGAGGCGG — higher, 0.98
- TTCGGCGGCAGCTTCTCGCC — lower, 0.37
- TTCTCCTCCTCCCCTGGCAG — lower, 0.8
- TGAAGGTGAGCTGGAGCCAT — higher, ≥ 1
- CTGGGCTGTTTGGTGCCTTA — lower, 0.8
- CTGAGAGGGCTGAGATGCGG — higher, ≥ 1
- CGGGAGGCGGTCACATTCGG — lower, 0.25
- TTCTCGCCCGCTCCTCCTCC — lower, 0.65
- TCCCGCCTGTGACATGCATT — lower, 0.05
- ATTCTTAAACCTGAGGGAGC — higher, ≥ 1

These sequences were tested against SELE. Details: ASO.

Point of comparison: GGCTTGAAATACTTTCCT, remaining target (mRNA or protein) (fraction of control) 0.84. Against it:
- TTCCCCAGATGCACCTGTTT — lower, 0.02
- GATGTGAAGTCAGCCAA — lower, 0.51
- ACGTTTGGCCTCATGGAAGT — lower, 0.35
- CGTTCTGCACTTACCGTTTTG — lower, 0.52
- CAGCCAAGAACAGCT — lower, 0.5
- GACAATATACAAACCTTCCAT — lower, 0.65
- GTATGGAAGATTATAATATAT — lower, 0.59
- GGGCCAGAGACCCGAGGAGA — lower, 0.46
- GTTCACAACTGAAAAAGAAAC — lower, 0.51
- ACCTCTGCTGTTCTGATCCT — lower, 0.17
- CAGCCAAGAACAGCTGG — lower, 0.62
- CTGTGAAGCAATCATGAC — higher, 0.96
- TCACCCAAAGGTTTAGGCTTG — lower, 0.1
- GAAGTCAGCCAAGAACAGCT — lower, 0.5
- GACTTCAAGAGTTCT — lower, 0.82
- ACAGGATCTCTCAGGTGGGT — lower, 0.2
- CCCAAAGGTTTAGGCTTG — lower, 0.61
- CCAAAGTGAGAGCTGAGAGA — lower, 0.36
- GAAATACTTTCCTGGGGAGAT — lower, 0.81

— the OligoGym collection
